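Cells were grown in 96-well plates and exposed to each compound for 48 hours at five concentrations; endpoints were interpolated linearly between bracketing concentrations, or set to the highest concentration if not reached. GI50 is the concentration that inhibits growth by half.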 The source made the active and inactive calls. Cut-off read from the data, not from the text of the source: active = GI50 up to about 1.1 µM and inactive = higher.
Tests used:
Assay in all cases: NCI tumour cell line growth inhibition, 48 h
[1] = system: A498
[2] = system: COLO 205
[3] = system: HCC 2998
[4] = system: HOP-92
[5] = system: IGROV-1
[6] = system: K562
[7] = system: KM12
[8] = system: M14
[9] = system: NCI-H226
[10] = system: NCI-H522
[11] = system: OVCAR-4
[12] = system: OVCAR-5
[13] = system: SF-268
[14] = system: SF-539
[15] = system: SK-MEL-28
[16] = system: SK-MEL-5
[17] = system: SK-OV-3
[18] = system: UACC-257
[19] = system: MCF7
[20] = system: NCI/ADR-RES

Measured: GI50

CC(=O)C1C(=O)C(=O)N(c2ccccc2N2C(=O)C(=O)C(C(C)=O)C2=O)C1=O (centres undefined)
inactive: [1] > 100 µM | [2] > 100 µM | [3] > 100 µM | [4] > 100 µM | [5] > 100 µM | [6] > 100 µM | [7] > 100 µM | [8] > 100 µM | [9] > 100 µM | [10] > 100 µM | [11] > 100 µM | [12] > 100 µM | [13] > 100 µM | [14] > 100 µM | [15] > 100 µM | [16] > 100 µM | [17] > 100 µM | [18] > 100 µM

C=CCC12CC(=O)CCC1c1ccc(OC)cc1C2=O (centres undefined)
inactive: [1] > 100 µM | [2] > 100 µM | [3] > 100 µM | [4] > 100 µM | [5] > 100 µM | [6] > 100 µM | [7] > 100 µM | [8] > 100 µM | [9] > 100 µM | [10] > 100 µM | [11] > 100 µM | [12] > 100 µM | [13] > 100 µM | [14] > 100 µM | [15] > 100 µM | [16] > 100 µM | [17] > 100 µM | [18] > 100 µM

C[C@]12CCC[C@H](Cl)C1(O)C[C@H](C(=O)O)CC2 (some centres undefined)
inactive: [1] > 100 µM | [2] > 100 µM | [3] > 100 µM | [4] > 100 µM | [5] > 100 µM | [6] > 100 µM | [7] > 100 µM | [8] > 100 µM | [9] > 100 µM | [10] > 100 µM | [11] > 100 µM | [12] > 100 µM | [13] > 100 µM | [14] > 100 µM | [15] > 100 µM | [16] > 100 µM | [17] > 100 µM | [18] > 100 µM

Cc1cccc(C)c1NC(=O)C(=O)CC(=O)CO
inactive: [1] > 100 µM | [2] > 100 µM | [3] > 100 µM | [4] > 100 µM | [5] > 100 µM | [6] > 100 µM | [7] > 100 µM | [8] > 100 µM | [9] > 100 µM | [10] > 100 µM | [11] > 100 µM | [12] > 100 µM | [13] > 100 µM | [14] > 100 µM | [15] > 100 µM | [16] > 100 µM | [17] > 100 µM | [18] > 100 µM

COc1nc(NC2OCC(O)C(O)C2O)c(NC2OCC(O)C(O)C2O)c(=O)n1C (centres undefined)
inactive: [1] > 100 µM | [2] > 100 µM | [3] > 100 µM | [4] > 100 µM | [5] > 100 µM | [6] > 100 µM | [7] > 100 µM | [8] > 100 µM | [9] 89.7 µM | [10] > 100 µM | [11] > 100 µM | [13] > 100 µM | [14] > 100 µM | [15] > 100 µM | [17] > 100 µM | [18] > 100 µM

C/C(CC(O)(/C=N/O)c1ccccc1)=N/O (centres undefined)
inactive: [3] > 100 µM | [5] > 100 µM | [6] > 100 µM | [7] > 100 µM | [8] > 100 µM | [19] > 100 µM | [9] > 100 µM | [10] > 100 µM | [20] 99.8 µM | [11] > 100 µM | [12] > 100 µM | [13] > 100 µM | [14] > 100 µM | [15] > 100 µM | [16] > 100 µM | [17] > 100 µM | [18] > 100 µM

COc1cc(C)c(C)c(OC(=O)c2c(C)c(C)c(OC)c(C)c2OC)c1C
inactive: [1] 16.6 µM | [2] 3.18 µM | [3] 13.8 µM | [4] 7.19 µM | [5] 8.67 µM | [6] 3.83 µM | [7] 3.31 µM | [8] 6.75 µM | [9] 15.7 µM | [10] 1.9 µM | [11] 10.3 µM | [12] 28.8 µM | [13] 11.8 µM | [14] 14.1 µM | [15] 20.4 µM | [16] 5.02 µM | [17] 7.19 µM | [18] 17.8 µM

CC(C)=CC1C(COC(=O)c2ccccc2Cl)C1(C)C (centres undefined)
inactive: [1] > 100 µM | [4] 28.4 µM | [5] 23.5 µM | [6] 34 µM | [7] 30.4 µM | [8] 75 µM | [9] 30.4 µM | [10] 20.4 µM | [20] 41.2 µM | [11] 42.2 µM | [12] 38.3 µM | [13] 27.5 µM | [15] > 100 µM | [16] 24 µM | [18] 48.9 µM

Cc1c(Cl)ccc2c1NC(=O)C2(O)CC(=O)c1ccc(Cl)cc1 (centres undefined)
inactive: [1] > 43.3 µM | [2] 32.4 µM | [3] > 42 µM | [4] 69.2 µM | [5] > 100 µM | [6] 22.8 µM | [7] 51.2 µM | [8] > 100 µM | [9] > 55.2 µM | [10] > 61.5 µM | [11] 43.7 µM | [12] > 100 µM | [13] > 70.1 µM | [14] 65.2 µM | [15] > 94.4 µM | [16] 53.3 µM | [17] > 100 µM | [18] 23.7 µM

C[C@]12CC[C@H](O)CC1=CC[C@@H]1C2CC[C@]2(C)c3n[nH]nc3CC12 (some centres undefined)
inactive: [1] > 100 µM | [2] > 100 µM | [3] > 100 µM | [4] > 100 µM | [5] > 100 µM | [6] 39.8 µM | [7] > 100 µM | [8] > 100 µM | [19] > 100 µM | [9] > 100 µM | [10] > 100 µM | [11] > 100 µM | [12] > 100 µM | [13] > 100 µM | [14] > 100 µM | [15] > 100 µM | [16] > 100 µM | [17] > 100 µM | [18] > 100 µM

O=c1oc2ccccc2cc1-c1nc2ccccc2s1
inactive: [1] 13.4 µM | [2] 23.2 µM | [3] 37.2 µM | [4] 6.65 µM | [5] 3.33 µM | [6] 3.61 µM | [7] 6.89 µM | [8] 16.5 µM | [9] 14.6 µM | [10] 6.47 µM | [20] 10 µM | [11] 11.6 µM | [12] 23.3 µM | [13] 8.73 µM | [14] 2.89 µM | [15] 21.2 µM | [16] 19 µM | [17] 10.1 µM | [18] 28.1 µM

COc1ccc2c(c1)CC[C@@H]1C2CC[C@]2(C)C(=O)N(C)C(=O)CC12 (some centres undefined)
inactive: [1] > 100 µM | [2] > 100 µM | [3] > 100 µM | [4] > 100 µM | [5] > 100 µM | [6] > 100 µM | [7] > 100 µM | [8] > 100 µM | [19] > 100 µM | [9] > 100 µM | [10] > 100 µM | [11] > 100 µM | [12] > 100 µM | [13] > 100 µM | [14] > 100 µM | [15] > 100 µM | [16] > 100 µM | [17] > 100 µM | [18] > 100 µM

CC(=O)Nc1ccc(/C=C/C(=O)c2sc(-n3nc(-c4ccccc4)cc3-c3ccccc3)nc2C)cc1
inactive: [1] > 10 µM | [2] > 10 µM | [3] > 10 µM | [4] > 10 µM | [5] > 10 µM | [6] > 10 µM | [7] 64.9 µM | [8] > 10 µM | [9] > 10 µM | [10] 35.9 µM | [11] 78.7 µM | [12] > 10 µM | [13] > 10 µM | [14] > 10 µM | [15] > 10 µM | [16] 95.3 µM | [17] > 10 µM | [18] 80.9 µM

Nc1ccc(N)c2c1C(=O)c1c(N)ccc(N)c1C2=O
inactive: [1] 61 µM | [2] 58.6 µM | [3] 39.6 µM | [4] 36.6 µM | [5] > 100 µM | [6] > 92.9 µM | [7] 60.8 µM | [8] > 77.3 µM | [9] 14.6 µM | [10] 27.5 µM | [11] 37.1 µM | [12] > 100 µM | [13] 45.7 µM | [14] 31.8 µM | [15] 98.6 µM | [16] 37.8 µM | [17] > 74.5 µM | [18] > 87.1 µM

Cc1ccc2ccccc2c1CC1S(=O)(=O)OCCOS1(=O)=O
inactive: [2] 2.43 µM | [3] 4.15 µM | [6] 9.12 µM | [7] 12.1 µM | [8] 12.9 µM | [19] 7.69 µM | [20] 19.1 µM | [11] 11.2 µM | [12] 11.9 µM | [15] 16 µM | [16] 12.8 µM | [18] 18.2 µM

COC(=O)C(=O)C1CCCCC(C2=NC3NN=C(N)N3C2=O)C1=O (centres undefined)
inactive: [1] > 100 µM | [2] > 100 µM | [3] > 100 µM | [4] > 100 µM | [5] > 100 µM | [6] > 100 µM | [7] > 100 µM | [8] > 100 µM | [9] > 100 µM | [10] > 100 µM | [11] > 100 µM | [12] > 100 µM | [13] > 100 µM | [14] > 100 µM | [15] > 100 µM | [16] > 100 µM | [17] > 100 µM | [18] > 100 µM

— ChEMBL document CHEMBL1201862, “PubChem BioAssay data set” (2004)
